This note sets out measurements from US8921082B2, “Method for producing xylitol from lignocellulosic hydrolysates without detoxification” (priority 2009, dated 2014).

This assay concerns Candida sp. strain. As to the kind of experiment: Tolerance of the strain Candida sp. to furfural (xylose fermentation with furfural added). It is filed as cell-based. The procedure:
The fermentation medium contained 97 g/L sterilized synthetic xylose solution with furfural in a concentration range of 1-3 g/L added. The fermentation temperature is controlled at 30° C., the agitation of the incubator is maintained at 150 rpm, and the ratio of the inocula size of the culture and the volume of the fermentation medium is 1:6 (v/v).

Structures are written as SMILES.

Take `O=Cc1ccco1` [furfural]: where the note is “97 g/L synthetic xylose solution, furfural 1-3 g/L added, 30° C., 150 rpm”, the “tolerance of the strain to furfural” value is on record as “higher than 3 g/L”. Also, under “furfural 1-3 g/L in 97 g/L synthetic xylose solution”, the xylitol yield result is on record as “higher than 0.7 g/g”. The “xylose fermentation capacity of the strain” value (furfural 3 g/L, 97 g/L synthetic xylose solution, compared with no furfural) is listed as “the same as that without furfural”.
